Source: PMC7938888, “Antidepressant drugs act by directly binding to TRKB neurotrophin receptors” (Cell, 2021)

Columns and labels:
[1] = system: TRKB autophosphorylation (TRKB:pY); experiment: TRKB:pY ELISA in cultured cortical cells; assay type: cell-based, rat; settings: for effect on TRKB phosphorylation (pTRKB) by BDNF: BDNF 10 ng/mL, primary cortical neurons
Method: The TRKB:pY (phosphorylated TRKB), TRKB:PLC-γ1, PLC-γ1:pTRKB.Y816 interactions and were determined by ELISA, based on the general method described in literature ([Antila et al., 2014]; [Fred et al., 2019]), with minor adjustments. Briefly, white 96-well plates (OptiPlate 96F-HB, Perkin Elmer) were coated with capturing anti-TRKB or PLC-γ1 antibody (1:1000) in carbonate buffer (pH = 9.8) overnight (ON) at 4°C. Following a blocking step with 2%BSA in TBS-T (2 h, RT), samples were incubated ON at 4°C. The incubation with antibody against pTRKB.Y816, PLC-γ1 or pY (1:2000, ON, 4°C) was followed by HRP-conjugated anti-Rb IgG (1:5000, 2h, RT) or HRP-conjugated streptavidin (1:10000, 2h, RT). Finally, the chemiluminescent signal generated by the reaction with ECL was analyzed in a plate reader (Varioskan Flash, Thermo Scientific).

[2] = system: E18 cortical cells; experiment: Cell viability (CellTiterGlo) of cortical cells; assay type: cell-based, rat; settings: pravastatin 2 μM/5 days; CHOL 20 μM or BDNF 10 ng/ml, 5 days
Method: The cell viability assay was performed using CellTiterGlo (#G7571; Promega) according to manufacturer’s instructions. Briefly, equal amounts of medium and the mixture of regents A and B were added to the E18 cortical cells (DIV8) cultivated in clear bottom 96-well plates and incubated for 40min. The luminescence was analyzed in a plate reader.

[3] = system: GFP-TRKB; experiment: dSTORM/TIRF of GFP-TRKB clusters on MG87.TRKB cells; assay type: cell-based, mouse; settings: BDNF 10 ng/ml, FLX 10 μM, CHOL 20 μM, KET 10 μM; 15 min
Method: For direct stochastic optical reconstruction microscopy (dSTORM) MG87.TRKB cells were grown on cell view 35mm dishes with glass bottom (Greiner) coated with poly-L-lysine (Sigma). […] Briefly, cells were fixed 24 hours post transfection with 4% PFA for 20 minutes, washed three times for 5 min with 1x PBS and incubated in blocking buffer (1% BSA, 0.1% gelatin, 5% goat serum, 0.1% Triton X-100 and 0.05% Tween-20 in PBS; all from Sigma) for 1 hour. The primary antibody against GFP (Abcam, #ab290) was diluted 1:100 and incubated overnight at +4°C, while the secondary antibody Alexa Fluor-conjugated goat-anti-rabbit 647 (Invitrogen) was diluted 1:500 and incubated at room temperature for 1 hour. The dishes were stored in +4°C in 1x PBS no longer than 48 hours before imaging.
During imaging, cells were maintained in blinking buffer (10% glucose, 0.07% cysteamine, 0.75 mg/ml glucose oxidase and 0.04 mg/ml catalase in 0.1 M Tris buffer, pH 7.8-8; all reagents from Sigma-Aldrich), which was freshly prepared and changed every hour. Imaging was performed in TIRF mode (TIRF angle 89.3 calibrated with ring-TIRF at least twice per sample) to specifically image the fluorophores at the plasma membrane. A GE DeltaVision OMX SR system (GE Healthcare) equipped with an Apo N 60x/1.49 oil objective and a sCMOS camera was used to acquire the images. The 640 nm diode laser was used at 100% of power to excite the Alexa 647 fluorophores while the 405 nm laser was adjusted until approximately 50% of power in order to maintain the blinking throughout the imaging session. For each cell, 35000 frames were acquired, and the localization map of single fluorophores was reconstructed with SoftWoRx 7.0 software (GE Healthcare). For the localization map, the first 1000 frames approximately were discarded and the reconstruction parameters were maintained identical for all the samples.
Reconstruction parameters: For the localization of all the blinking events in the dataset, the point spread function size factor was set at 1.550 with a local maximum factor of 0.05. Drift correction was adjusted dividing the frames into 20 groups. Tracking of the fluorophores was performed with a maximum localization precision of 100 nm without fiducial markers. The final localization map of the fluorophores identified was built with a reconstruction pixel size of 10 nm and localization precision set at 5 and 100 nm respectively for the minimum and the maximum, and a fluorophore persistence threshold set at 3 frames.
The analysis of the reconstructed images was performed in Fiji. Depending on the size of picture, 5 or 10 representative regions of interest (ROIs) of 2x1 μm were blindly chosen per cell and used for particle analysis of the TRKB-positive clusters. […]

[4] = biological target: TRKB (Mus musculus, UniProt P15209); experiment: Cell-free ligand binding assay on immobilised TRKB from HEK293T lysates; parameters: wild-type GFP-tagged full length TRKB or the GFP-tagged Y433F TRKB mutant; host or cells: HEK293T; settings: for displacement of biotinylated FLX from TRKB: biotinylated FLX 1 μM
[5] = system: mice; experiment: Forced swimming test (FST); assay type: in vivo, mouse; settings: FLX 15 mg/kg for 21 days, KET 10 mg/kg i.p. 2 h before
Method: Forced swimming test: animals (adult male and female mice, 18-22 weeks old) were placed in 5l glass beaker cylinders (19cm diameter, with 20cm water column) for 6min. The immobility was assessed in the last 4min of the session ([Diniz et al., 2018]). The water was changed between each test. After swimming, animals were towel-dried and kept in a warmed cage before returning to their home cages. Test was videotaped and analyzed by a trained observer blind to treatment.

TRKB, sequence (P15209 32-821): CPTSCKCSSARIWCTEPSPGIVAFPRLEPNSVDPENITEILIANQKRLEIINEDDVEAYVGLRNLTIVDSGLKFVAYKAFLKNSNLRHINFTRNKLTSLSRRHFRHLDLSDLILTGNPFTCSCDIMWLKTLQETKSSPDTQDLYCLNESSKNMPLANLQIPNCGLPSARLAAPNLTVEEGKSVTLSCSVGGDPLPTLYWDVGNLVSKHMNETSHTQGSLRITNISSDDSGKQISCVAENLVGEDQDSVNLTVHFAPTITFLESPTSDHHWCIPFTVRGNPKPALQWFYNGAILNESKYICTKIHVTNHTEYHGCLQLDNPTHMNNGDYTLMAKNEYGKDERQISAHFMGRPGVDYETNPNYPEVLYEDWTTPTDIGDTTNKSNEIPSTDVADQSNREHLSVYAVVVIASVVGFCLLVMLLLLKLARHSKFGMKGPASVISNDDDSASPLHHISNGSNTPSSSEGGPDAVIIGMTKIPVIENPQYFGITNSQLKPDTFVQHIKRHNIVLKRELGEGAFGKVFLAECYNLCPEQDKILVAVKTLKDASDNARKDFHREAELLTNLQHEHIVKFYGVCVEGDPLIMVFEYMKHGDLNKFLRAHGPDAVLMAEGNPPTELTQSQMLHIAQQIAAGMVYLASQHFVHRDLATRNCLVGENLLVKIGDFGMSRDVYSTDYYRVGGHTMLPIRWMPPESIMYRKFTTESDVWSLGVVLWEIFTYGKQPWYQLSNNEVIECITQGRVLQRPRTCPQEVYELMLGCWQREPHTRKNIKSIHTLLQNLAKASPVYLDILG

Molecule	effect on TRKB phosphorylation (pTRKB) by BDNF ([1]; CHOL 20 μM)	effect on TRKB phosphorylation (pTRKB) by BDNF ([1]; CHOL 50–100 μM)	rescue of pravastatin-reduced neuronal survival [2]	size of clusters formed by wild-type GFP-TRKB at the plasma membrane [3]	effect on interaction of biotinylated FLX and R,R-HNK with TRKB [4]	rescue of BDNF-induced pTRKB response under high CHOL ([1]; cholesterol 50 μM, drug 10 μM 15 min, BDNF 10 ng/ml 15 min)	immobility in the FST ([5]; TRKB.Y433F mice)	immobility in the FST ([5]; wild-type mice)	Ki [4]	displacement of biotinylated FLX from TRKB [4]	Kd ([4]; TRKB.wt, read-out: binding affinity of BDNF)
CC(C)CCC[C@@H](C)[C@H]1CC[C@H]2[C@@H]3CC=C4C[C@@H](O)CC[C@]4(C)[C@H]3CC[C@]12C [CHOL, cholesterol]	enhanced TRKB phosphorylation	suppressed the effects of BDNF	rescued	increased the size of clusters	increased the interaction of these compounds with TRKB						
CNCCC(Oc1ccc(C(F)(F)F)cc1)c1ccccc1 (stereo not drawn) [FLX, fluoxetine]				increased the size of clusters		partially rescued	ineffective	significantly reduced immobility			
CNC1(c2ccccc2Cl)CCCCC1=O (stereo not drawn) [KET, ketamine]				increased the size of clusters			ineffective	significantly reduced immobility	12.3 µM	readily displaced	
BDNF: brain-derived neurotrophic factor, TRKB ligand (protein, UniProt P23560 19-247, looked up) Neurotrophic factor BDNF …: APMKEANIRGQGGLAYPGVRTHGTLESVNGPKAGSRGLTSLADTFEHVIEELLDEDQKVRPNEENNKDADLYTSRVMLSSQVPLEPPLLFLLEEYKNYLDAANMSMRVRRHSDPARRGELSVCDSISEWVTAADKKTAVDMSGGTVTVLEKVPVSKGQLKQYFYETKCNPMGYTKEGCRGIDKRHWNSQCRTTQSYVRALTMDSKKRIGWRFIRIDTSCVCTLTIKRGR			not by BDNF	increased the size of clusters						failed to displace	3.1 pM
